Measured values taken from patent publication US10463644B2, “Uses of sesquiterpene lactone compounds and their derivatives in drugs preparation” (ACCENDATECH, priority 2013, dated 2019).
Like-named read-outs stand apart in the source and are kept apart here.

System: cancer cells
Assay: Survival rate of cancer cells after test compound is added (flow cytometry, Annexin V-FITC/PI, clinical specimen)
Assay type: cell-based, patient
Settings: Homo sapiens, 18 h, read-out: Survival rate (%) All cells (Stem cells and ordinary cells)
Text: Take fresh or cryopreserved clinical specimen (acute myelogenous leukemia (AML, marker is CD34^+/CD38^+), chronic myelogenous leukemia (CML, Ph+/CD34+/CXCR4+), chronic lymphocytic leukemia (CLL,CD133+/CD19−/CD38−), skin cancer (CD34+), breast cancer (CD44+/CD24−/ESA+), ovarian cancer (CD44+/CD117+), brain tumor (CD133+) prostate cancer (CD44+/CD24−), head-neck squamous cell carcinoma (CD44+), laryngeal cancer (CD133+), pancreatic cancer (ESA+/CD44+/CD24+), retinoblastoma (ABCG2/ALDH1), Children hepatoblastoma (CD34+/THY1+/c-kit+), liver cancer (CD133+), malignant melanoma (CD133+), colorectal cancer (EpCAM^high/CD44+), colon adenocarcinoma (CD44^high), glioma (ABCG-2/BCRP1), gastrointestinal tumor (ABCG-2/BCRP1), nasopharynx cancer (ABCG2), brain glioma (Dlk-1/Pref-1), gastric cancer (CD45+), lung adenocarcinoma (Sca-1/CD45-/Pecam-/CD34+), lung cancer (CD133+CD34+CD44+)) of patient. Take the acute myelogenous leukemia as the example, conduct density gradient centrifugation with Ficoll and take out the middle mononuclear cells, re-suspend it with serum-free IMDM after centrifuged. Adjust the concentration of cells into 1×10^6/mL and lay 24-well plate with 1 mL in each well, and then treat 18 hours with the compound to select with corresponding concentration. Collect the cells and centrifuge them at 1500 rps for 8 minutes, re-suspend the precipitation with […], mark the antibodies related to leukemia stem cell, avoid light to incubate 30 minutes at room temperature and then centrifuge it at 1500 rps, then wash away the unbound antibody CD34^+CD38^+. Re-suspend it with 100 μl 1× Binding Buffer and add respectively 5 μl Annexin V-FITC and PI, then avoid light to incubate 15 minutes before add 200 μl 1× Binding Buffer, then use flow cytometry to examine the marked apoptosis within one hour.

[1] = Head and neck squamous cell carcinomas

## [2H][C@@]1(CN(C)C)C(=O)O[C@@H]2[C@@H]3[C@@H](CCC34CC4)C3(CC[C@H]21)CC3 [Compound 46]
AML
  viability at 10 µM: 88%
  viability at 20 µM: 85%
Brain glioma
  viability at 10 µM: 91%
  viability at 20 µM: 89%
Brain tumor
  viability at 10 µM: 91%
  viability at 20 µM: 89%
Breast cancer
  viability at 10 µM: 89%
  viability at 20 µM: 86%
CLL
  viability at 10 µM: 88%
  viability at 20 µM: 89%
CML
  viability at 10 µM: 93%
  viability at 20 µM: 86%
Children hepatoblastoma
  viability at 10 µM: 91%
  viability at 20 µM: 88%
Colon adenocarcinoma
  viability at 10 µM: 89%
  viability at 20 µM: 86%
Colorectal cancer
  viability at 10 µM: 93%
  viability at 20 µM: 92%
Gastric cancer
  viability at 10 µM: 94%
  viability at 20 µM: 87%
Gastrointestinal tumor
  viability at 10 µM: 89%
  viability at 20 µM: 86%
Glioma
  viability at 10 µM: 91%
  viability at 20 µM: 84%
[1]
  viability at 10 µM: 91%
  viability at 20 µM: 88%
Laryngeal cancer
  viability at 10 µM: 87%
  viability at 20 µM: 83%
Liver cancer
  viability at 10 µM: 87%
  viability at 20 µM: 83%
Lung adenocarcinoma
  viability at 10 µM: 93%
  viability at 20 µM: 86%
Lung cancer
  viability at 10 µM: 88%
  viability at 20 µM: 89%
Malignant melanoma
  viability at 10 µM: 92%
  viability at 20 µM: 89%
Nasopharynx cancer
  viability at 10 µM: 88%
  viability at 20 µM: 81%
Ovarian cancer
  viability at 10 µM: 88%
  viability at 20 µM: 81%
Pancreatic cancer
  viability at 10 µM: 88%
  viability at 20 µM: 85%
Prostate cancer
  viability at 10 µM: 94%
  viability at 20 µM: 87%
Retinoblastoma
  viability at 10 µM: 91%
  viability at 20 µM: 87%
Skin cancer
  viability at 10 µM: 92%
  viability at 20 µM: 89%

## C=C1C(=O)O[C@H]2[C@H]1CC[C@@](C)(OC)C1CC[C@@](C)(O)[C@@H]12 (stereo partly drawn) [Compound 47]
AML
  viability at 10 µM: 88%
  viability at 20 µM: 82%
Brain glioma
  viability at 10 µM: 93%
  viability at 20 µM: 86%
Brain tumor
  viability at 10 µM: 87%
  viability at 20 µM: 83%
Breast cancer
  viability at 10 µM: 91%
  viability at 20 µM: 87%
CLL
  viability at 10 µM: 91%
  viability at 20 µM: 87%
CML
  viability at 10 µM: 92%
  viability at 20 µM: 89%
Children hepatoblastoma
  viability at 10 µM: 88%
  viability at 20 µM: 85%
Colon adenocarcinoma
  viability at 10 µM: 91%
  viability at 20 µM: 89%
Colorectal cancer
  viability at 10 µM: 88%
  viability at 20 µM: 81%
Gastric cancer
  viability at 10 µM: 88%
  viability at 20 µM: 89%
Gastrointestinal tumor
  viability at 10 µM: 89%
  viability at 20 µM: 81%
Glioma
  viability at 10 µM: 94%
  viability at 20 µM: 87%
[1]
  viability at 10 µM: 93%
  viability at 20 µM: 92%
Laryngeal cancer
  viability at 10 µM: 93%
  viability at 20 µM: 86%
Liver cancer
  viability at 10 µM: 91%
  viability at 20 µM: 87%
Lung adenocarcinoma
  viability at 10 µM: 92%
  viability at 20 µM: 89%
Lung cancer
  viability at 10 µM: 93%
  viability at 20 µM: 86%
Malignant melanoma
  viability at 10 µM: 89%
  viability at 20 µM: 86%
Nasopharynx cancer
  viability at 10 µM: 88%
  viability at 20 µM: 85%
Ovarian cancer
  viability at 10 µM: 91%
  viability at 20 µM: 88%
Pancreatic cancer
  viability at 10 µM: 91%
  viability at 20 µM: 88%
Prostate cancer
  viability at 10 µM: 92%
  viability at 20 µM: 89%
Retinoblastoma
  viability at 10 µM: 87%
  viability at 20 µM: 83%
Skin cancer
  viability at 10 µM: 91%
  viability at 20 µM: 88%

## CN(C)C[C@@H]1C(=O)O[C@H]2[C@H]1CCC1(CC1)[C@@H]1CCC3(CC3)[C@H]21 [Compound 35]
AML
  viability at 10 µM: 91%
  viability at 20 µM: 87%
Brain glioma
  viability at 10 µM: 92%
  viability at 20 µM: 87%
Brain tumor
  viability at 10 µM: 87%
  viability at 20 µM: 83%
Breast cancer
  viability at 10 µM: 93%
  viability at 20 µM: 92%
CLL
  viability at 10 µM: 87%
  viability at 20 µM: 83%
CML
  viability at 10 µM: 91%
  viability at 20 µM: 88%
Children hepatoblastoma
  viability at 10 µM: 94%
  viability at 20 µM: 87%
Colon adenocarcinoma
  viability at 10 µM: 91%
  viability at 20 µM: 88%
Colorectal cancer
  viability at 10 µM: 91%
  viability at 20 µM: 87%
Gastric cancer
  viability at 10 µM: 92%
  viability at 20 µM: 89%
Gastrointestinal tumor
  viability at 10 µM: 92%
  viability at 20 µM: 89%
Glioma
  viability at 10 µM: 87%
  viability at 20 µM: 83%
[1]
  viability at 10 µM: 91%
  viability at 20 µM: 87%
Laryngeal cancer
  viability at 10 µM: 89%
  viability at 20 µM: 86%
Liver cancer
  viability at 10 µM: 89%
  viability at 20 µM: 86%
Lung adenocarcinoma
  viability at 10 µM: 91%
  viability at 20 µM: 87%
Lung cancer
  viability at 10 µM: 91%
  viability at 20 µM: 88%
Malignant melanoma
  viability at 10 µM: 91%
  viability at 20 µM: 84%
Nasopharynx cancer
  viability at 10 µM: 93%
  viability at 20 µM: 92%
Ovarian cancer
  viability at 10 µM: 91%
  viability at 20 µM: 88%
Pancreatic cancer
  viability at 10 µM: 88%
  viability at 20 µM: 81%
Prostate cancer
  viability at 10 µM: 88%
  viability at 20 µM: 85%
Retinoblastoma
  viability at 10 µM: 91%
  viability at 20 µM: 89%
Skin cancer
  viability at 10 µM: 92%
  viability at 20 µM: 89%
